Biological target: T1, Hms (Streptomyces coelicolor, UniProt Q9Z4X7)
T1 construct: gene SCO3229; full-length, C-terminal Strep-tag II kept, expressed in E. coli BL21(DE3) from pKYB1; monomer, ~45 kDa
T1 sequence (Q9Z4X7 1-371): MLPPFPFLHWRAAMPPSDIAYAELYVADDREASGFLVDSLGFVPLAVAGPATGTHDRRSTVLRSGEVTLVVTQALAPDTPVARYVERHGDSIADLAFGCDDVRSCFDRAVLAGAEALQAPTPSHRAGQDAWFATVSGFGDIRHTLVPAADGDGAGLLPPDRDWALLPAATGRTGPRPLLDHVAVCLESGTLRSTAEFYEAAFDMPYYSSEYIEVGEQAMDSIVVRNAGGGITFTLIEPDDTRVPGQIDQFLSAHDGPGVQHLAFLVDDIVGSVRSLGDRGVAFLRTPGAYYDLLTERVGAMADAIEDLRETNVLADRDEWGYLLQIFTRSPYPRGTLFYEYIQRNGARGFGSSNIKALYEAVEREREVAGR
Experiment: O2 consumption, micro-optode, steady state
Type: biochemical
Settings: apparent constant at air saturation; 20 mM Tris/HCl pH 7.5, 25 °C; no added Fe(II)

Km [µM] | SMILES
35 ± 20 | O=C(O)C(=O)CCc1ccccc1 [OPB, 2-Oxo-4-phenylbutanoic acid]
353 ± 87 | O=C(O)C(=O)Cc1ccccc1 [PP, Phenylpyruvic acid]
160 ± 70 | COc1ccc(CC(=O)C(=O)O)cc1 [VII, p-Methoxyphenylpyruvic acid]

From article PMC3720870, “Chiral Hydroxylation at the Mononuclear Nonheme Fe(II) Center of 4-(S) Hydroxymandelate Synthase – A Structure-Activity Relationship Analysis” (PLoS ONE, 2013)
